Columns and labels:
[1] = Solubility (pH 2, pH 7, ethyl acetate); format: physicochemical
Excerpt: In the above table, the physicochemical data, e.g., solubility, were obtained following standard protocols known in the field (see, e.g., Reis et al., Mini Rev Med Chem., 2010, 10(11):1071-6; Avdeef et al., Expert Opin Drug Metab Toxicol., 2005, 1(2):325-42; Bharate et al., Comb Chem High Throughput Screen., 2016, 19(6):461-9; and Jain et al., J Pharm Biomed Anal., 2013, 86:11-35.); and the biochemical data, i.e., potency for ETA/ETB, were obtained following the protocols known in the field (see, e.g., Kirkby et al., Br J Pharmacol., 2008, 153(6):1105-19; and Maguire et al., Br J Pharmacol., 2014, 171(24):5555-72.).

[2] = system: Morrison's rat model of glaucoma (elevated IOP); assay: Morrison's rat model of glaucoma (RGC counts, PERG); format: in vivo, Brown Norway rats; details: topical eye drops 100 μg per dose, five days a week, four weeks
Excerpt: Adult male and female retired breeder Brown Norway rats (approximate age groups of 8 to 11 months) were obtained from Envigo (Indianapolis, IN). Baseline IOP measurements and pattern electroretinogram (PERG) amplitudes were collected prior to the surgery for elevation of IOP (to ensure that the IOP and PERG amplitudes were in the expected range of values). IOP was elevated in one eye (left eye) of the rats, while the corresponding right eyes served as contralateral controls. The Morrison method to elevate IOP in rats was carried out by injection of 50 μL. of hypertonic saline through the episcleral veins to sclerose the trabecular meshwork. IOP was measured twice a week throughout the entire duration of the experiment. […] After detecting an elevation of IOP for two consecutive days, topical administration of eye drops (20 μL (100 μg) per dose of the tested compounds in the IOP elevated eye) was commenced and carried out for five days a week for a total of four weeks. In the 4th week of treatment, PERG analysis was carried out and rats were sacrificed by an overdose of pentobarbital (Fatal-Plus). Aqueous humor was collected from the rat eyes, frozen and shipped for analysis. Retinal flat mounts were prepared, immunostained with the RGC marker, Brn3a antibody and surviving RGCs were counted in two eccentricities (central and peripheral).
For this study, the Morrison's model was used to induce ocular hypertension in adult male retired breeder Brown Norway rats as previously described by Morrison et al., (Morrison J C, Moore C G, Deppmeier L M, Gold B G, Meshul C K, Johnson E C. A rat model of chronic pressure-induced optic nerve damage. Exp Eye Res. 1997; 64(1):85-96).
The immunostained retinal flat mounts were obtained to measure the retinal ganglion cell (RGC) counts. To obtain immunostained retinal flat mounts, the animals were euthanized after the treatments and then their eyes were enucleated. The eye cups were fixed overnight at 4° C. in 4% paraformaldehyde (PFA) and retinal flat mounts were prepared for collecting images. The retinal ganglion cell (RGC) counting was conducted using the images of immunostained retinal flat mounts. The images were uploaded to ImageJ, a photo editor designed for biology research (Rasband, 1997-2018) and the labeled retinal ganglion cells were counted manually in two eccentricities (central and peripheral).
Pattern ERG (PERG) was used to assess the RGC function. […] Briefly, PERG signals were acquired from a DTL-plus electrode placed on the lower part of the corneal surface and the PERG waves were analyzed using the EMWIN software (LKC). The difference between the amplitude of the major positive (P1) and negative (N2) waves were calculated to decipher the PERG amplitude.

[3] = Pharmacokinetics after intravitreal administration in the rabbit; format: in vivo, rabbits (Oryctolagus cuniculus); details: IVT, plasma and ocular tissues
Experimental: To determine the pharmacokinetic and safety properties of Edonentan following intravitreal administration in the rabbit, rabbits (Oryctolagus cuniculus) received bilateral intravitreal injections (20 μL injection volume/eye). Following the injections, animals were tranquilized with a ketamine/xylazine cocktail, and then the animals were euthanized with an overdose of sodium pentobarbital (Euthasol). Animals designated for the pharmacokinetic analysis were euthanized at different time points (e.g. 12, 16, 24, 36 and 48 hours). At least 1.0 mL of whole blood was drawn from the marginal ear vein or cardiac puncture (terminal bleed only) into K2EDTA tubes for plasma collection and processed for analytical analysis.
Immediately following euthanasia, the eyes was enucleated. Aqueous humor from both eyes was removed via syringe and snap frozen for analysis. Eyes were dissected when frozen to isolate various ocular tissues and minimize drug diffusion to adjacent tissues. Tissues from left and right eyes were collected in separate vials for analysis. List of tissues collected include plasma and aqueous humor, iris/ciliary body (ICB), retina, vitreous humor and RPE/choroid. The pharmacokinetic properties of intravitreally delivered Edonentan in rabbits are shown in FIG. 9A, FIG. 9B, FIG. 9C and FIG. 9D.

## Cc1onc(NS(=O)(=O)c2ccccc2-c2ccc(-c3ncco3)cc2CN(C)C(=O)CC(C)(C)C)c1C [Edonentan, N-[[2′-[[(4,5-dimethyl-3-isoxazolyl)amino]sulfonyl]-4-(2-oxazolyl)[1,1′-biphenyl]-2-yl]methyl]-N,3,3-trimethylbutanamide]
[1]; ethyl acetate
  Solubility in Ethyl Acetate, rating in words: Good
[1]; pH 2
  Solubility at pH 2: <1 μM
[1]; pH 7
  Solubility at pH 7, comparison in words: superior to that of A-182086
[2]
  Pattern electroretinogram (PERG) changes, RGC function: maintained RGC function
  Retinal ganglion cell (RGC) counts in the peripheral retina: prevented RGC loss
[3]
  t1/2 after intravitreal delivery: longer t1/2
